Measured values reported in US20100048577A1, “Method for treating benign prostate hyperplasia using resveratrol” (priority 2008, published 2010).

Assays:
[1] = test system: BPH (prostate weight/body weight indices); experiment: Cure or prevention of testosterone enanthate induced BPH, fortified diets, prostate weight/body weight index at day 29 (Example 2); format: in vivo; settings: testosterone enanthate 25 mg i.m. days 1 and 7, diet with 1 g/kg resveratrol or trimethoxystilbene, 625 mg/kg saw palmetto, or finasteride 10 mg s.c. on 5 days
Protocol: These experiments were designed to determine whether resveratrol and trimethoxystilbene could cure or prevent BPH. Experimental animals received diets that were fortified with one of trans-resveratrol (1 g/kg), trimethoxystilbene (1 g/kg), or saw palmetto (625 mg/kg). An additional group of animals received injections of finasteride fourteen days after the start of the experiment. The animals received one, subcutaneous injection of 10 mg of finasteride in 0.1 ml dimethyl sulfoxide on 5 consecutive days. All animals, except the absolute control group, received injections of testosterone enanthate (25 mg, in 0.1 ml mineral oil). The injections were administered intramuscularly, on days 1 and 7 of the study. The absolute control group received intramuscular injections of 0.1 ml of mineral oil. At day 29, all test animals were weighed, sacrificed and their prostates were dissected free of fat and weighed. Prostate weight/body weight indices were determined for each group.

[2] = test system: induced BPH (prostate weight/body weight ratio); experiment: Testosterone enanthate induced BPH in rats, prostate weight after 29 days of treatment (Example 1); format: in vivo; settings: Sprague Dawley rats, finasteride 10 mg s.c., resveratrol 1 g/kg in diet, saw palmetto 625 mg/kg in diet
Protocol: Sexually mature Sprague Dawley rats were given two, intramuscular injections of testosterone enanthate, at 25 mg. This induced BPH.
Animals were then divided into different groups. A first group of 5 animals received finasteride, via subcutaneous injection at a dose of 10 mg. A second group received 1 g/kg of body weight of resveratrol, mixed into their diet. A third group received saw palmetto, at 625 mg/kg, mixed into their diet. The control group received the vehicle for the active material only with no active ingredient.
Following 29 days of treatment, all animals were sacrificed. Prostates were dissected free of fat, and weighed.
The injection of the testosterone enanthate increased the prostate weight/body weight ratio by about 2-fold.

PSA = PSA expression in prostate tissue of the experimental animals by quantitative PCR (Example 4); format: in vivo; settings: animals treated as in Example 2
Protocol: In additional experiments following the details of example 2, supra, levels of PSA expression were tested.
Prostate tissue from the experimental animals was subjected to quantitative PCR, using well known methods. The expression of PSA was compared in untreated, and in resveratrol, and trimethoxystilbene treated animals.

[3] = test system: Normal human prostate endothelial cells (ATCC CRL-11611); experiment: Gene expression of normal human prostate cells treated or not treated with resveratrol (Example 3); format: cell-based; settings: resveratrol 50 μM, 48 hours
Protocol: Normal human prostate endothelial cells were obtained from the ATCC (CRL-11611), and were either treated or not treated with resveratrol, at 50 μM, for 48 hours. Gene expression of the cells was compared, via standard methods.

Compound | prostates (weight) compared with controls [1] | effect on testosterone enanthate induced BPH (increased prostate weight/body weight ratio) [2] | level of PSA expression relative to that of the controls (PSA) | share of the 376 genes known to be involved with apoptosis showing significant down regulation following treatment [3]
CC(C)(C)NC(=O)[C@H]1CC[C@H]2[C@@H]3CC[C@H]4NC(=O)C=C[C@]4(C)[C@H]3CC[C@]12C [finasteride, Finasteride, reference compound] | indistinguishable from controls | completely reversed the effect | – | –
Oc1ccc(/C=C/c2cc(O)cc(O)c2)cc1 [resveratrol, trans-3,5,4′-trihydroxystilbene] | indistinguishable from controls | reversed the induced BPH | about ⅓ | about 10%
COc1ccc(/C=C/c2cc(OC)cc(OC)c2)cc1 [trimethoxystilbene] | indistinguishable from controls | – | about ⅓ | –
